Results taken from patent US20020182207A1, “Methods and compositions for modifying biologically active target molecules” (priority 2000, published 2002).
Each block holds one compound with its values, some of them ahead of it.

What was measured:
[1] = tested on: β-lactamase-producing E. coli (TG1 phage antibody E. coli); assay: Growth of β-lactamase-producing E. coli on agar plates containing antibiotics; format: cell-based; set-up: E. coli growth score on agar plate: key to the marks not given beside the values; conditions: for Antibiotic effect on β-lactamase-producing E. coli (in words): at the indicated concentrations of Table 2; for Concentration toxic to β-lactamase-expressing E. coli / Concentration toxic to β-lactamase-expressing E. coli (toxic level): agar plates; for Concentration toxic to β-lactamase-expressing E. coli (toxic level): called IC50 in b119 and b167
Procedure: First, the ability of these candidate cephalosporins to kill the relevant β-lactamase-producing E. coli (TG1 phage antibody E. coli) was tested. […] This is presumably due to β-lactamase-catalyzed inactivation. […] Presumably, neither is inactivated by E. coli β-lactamase. […] More preferably, E. coli should be challenged with approximately 40-45 μM cefoxitin and 0.45-0.50 μM cefotaxime.
Next, the ability of the cephalosporins to kill the relevant β-lactamase-producing E. coli (TG1 phage antibody E. coli) was tested by growing the bacteria on agar plates containing the antibiotics. […] This is presumably due to β-lactamase-catalyzed inactivation. […] Presumably, neither is inactivated by E. coli β-lactamase.
A second experiment was performed in which E. coli was grown on agar plates containing varying amounts of cefotaxime.

TNFα = TNFα (Homo sapiens, UniProt P01375); assay: ECL-based assay of TNFα binding to its receptor after incubation with label (sugars, ampicillin)
Procedure: Experiments were conducted to determine whether catalytic antibodies can chemically modify and thereby inactivate disease-associated proteins. First, the reaction of reducing sugars with the disease-associated protein, tumor necrosis factor alpha (TNFα) was examined. In this reaction, the reducing sugar aldehyde covalently reacts with protein lysine sidechains. Chemical modification was detected using an ECL-based binding assay that measures the binding of TNFα to its receptor (an assay of biological function). […] Thus, chemical modification is a viable approach to inactivate proteins. Experiments were conducted to determine whether catalytic antibodies can inactivate disease-associated proteins. First, the reaction of reducing sugars with the disease-associated protein, tumor necrosis factor alpha (TNFα) was examined. In this reaction, the reducing sugar aldehyde covalently reacts with protein lysine sidechains. Chemical modification was detected using an ECL-based immunoassay that measures the binding of TNFα to its receptor. The assay is a sandwich format that uses antibodies directed against TNF and its receptor. One antibody is labeled with biotin, the other with an ECL label (TAG NHS Ester, IGEN International). When the TNF-TNF receptor complex is present, a sandwich complex comprising both a biotin and an ECL label is formed. This sandwich complex is captured on streptavidin-coated magnetic beads and measured using ECL detection. Alternatively, the TNF receptor may be directly biotinylated and the TNF target molecule labeled directly with the ECL label (or visa versa); in this alternative approach, no antibodies are necessary. […] Thus, chemical modification may be used to inactivate proteins. The uncatalyzed reaction between a β-lactam (ampicillin) and two proteins was also examined. Bovine serum albumin (BSA) and ampicillin were reacted overnight. […] Ampicillin was also reacted with TNFα overnight. […] Thus, this reaction is much more facile than the reaction of TNFα with reducing sugars.

[2] = Pseudo-first order NaOH hydrolysis rates by UV spectrometry; format: physicochemical; conditions: 1.0 mM antibiotic, 10.0 mM NaOH, 30.0° C.
Procedure: Further, before choosing either cefoxitin or cefotaxime as the labeling reactant, it was verified that their uncatalyzed reactivity rates were as facile as that of ampicillin. Model reactions were performed comparing the (NaOH) hydrolysis rates of cefoxitin, cefotaxime, and ampicillin. Hydrolysis and acylation are mechanistically identical. Their pseudo-first order hydrolysis rates as measured by UV spectrometry (1.0 mM antibiotic, 10.0 mM NaOH, 30.0° C.) were virtually the same: […]

[3] = first column, head printed 10 g/mL
[4] = second column, head printed 10 g/mL

TNFα, sequence (P01375 77-233 limits assumed): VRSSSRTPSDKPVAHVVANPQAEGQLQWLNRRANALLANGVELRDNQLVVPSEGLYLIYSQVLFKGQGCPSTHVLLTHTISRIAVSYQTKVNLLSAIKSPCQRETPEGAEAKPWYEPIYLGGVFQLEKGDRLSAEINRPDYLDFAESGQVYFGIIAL

SMILES: CC(=O)OCC1=C(C(=O)O)N2C(=O)[C@@H](NC(=O)Cc3cccs3)[C@H]2SC1 [Cephalothin]
- Antibiotic effect on β-lactamase-producing E. coli (in words) [1]: little or no antibiotic effect
- E. coli growth score on agar plate [1, 3]: +++++
- E. coli growth score on agar plate [1, 4]: +++++

SMILES: CC1(C)S[C@@H]2[C@H](NC(=O)[C@H](N)c3ccccc3)C(=O)N2[C@H]1C(=O)O [Ampicillin]
- Loss of TNFα biological activity according to the receptor binding assay (TNFα; reacted with TNFα overnight, uncatalyzed): 16%
- Antibiotic effect on β-lactamase-producing E. coli (in words) [1]: little or no antibiotic effect
- E. coli growth score on agar plate [1, 3]: +++++
- E. coli growth score on agar plate [1, 4]: +++++
- Pseudo-first order hydrolysis rate [2]: 0.00564 min⁻¹

SMILES: CO[C@@]1(NC(=O)Cc2cccs2)C(=O)N2C(C(=O)O)=C(COC(N)=O)CS[C@@H]21 [Cefoxitin]
- Concentration toxic to β-lactamase-expressing E. coli [1]: ~22 µM
- Concentration toxic to β-lactamase-expressing E. coli (toxic level) [1]: approximately 10 μg/mL
- Antibiotic effect on β-lactamase-producing E. coli (in words) [1]: excellent antibiotic effects
- Number of E. coli colonies on agar plate [1, 3]: 30 colonies
- Pseudo-first order hydrolysis rate [2]: 0.00438 min⁻¹

- TNFα receptor binding following incubation with sugar (control buffer = 1.00, arbitrary) (TNFα; incubation time: 7 days): 0.89
- TNFα receptor binding following incubation with sugar (control buffer = 1.00, arbitrary) (TNFα; incubation time: 14 days): 0.82
- TNFα receptor binding following incubation with sugar (control buffer = 1.00, arbitrary) (TNFα; incubation time: None): 1.00
SMILES: O=C[C@H](O)[C@@H](O)[C@@H](O)[C@H](O)CO [Galactose]

SMILES: CO/N=C(\C(=O)N[C@@H]1C(=O)N2C(C(=O)O)=C(COC(C)=O)CS[C@H]12)c1csc(N)n1 [Cefotaxime]
- Concentration toxic to β-lactamase-expressing E. coli [1]: ~0.25 µM
- Concentration toxic to β-lactamase-expressing E. coli (toxic level) [1]: ~0.12 µg/mL
- Antibiotic effect on β-lactamase-producing E. coli (in words) [1]: excellent antibiotic effects
- # of E. coli colonies ([1]; cefotaxime concentration 0.04 μg/mL): 225
- # of E. coli colonies ([1]; cefotaxime concentration 0.12 μg/mL): 5
- # of E. coli colonies ([1]; cefotaxime concentration 0.37 μg/mL): 0
- # of E. coli colonies ([1]; cefotaxime concentration 1.11 μg/mL): 0
- Pseudo-first order hydrolysis rate [2]: 0.0041 min⁻¹

- TNFα receptor binding following incubation with sugar (control buffer = 1.00, arbitrary) (TNFα; incubation time: 7 days): 0.79
- TNFα receptor binding following incubation with sugar (control buffer = 1.00, arbitrary) (TNFα; incubation time: 14 days): 0.67
- TNFα receptor binding following incubation with sugar (control buffer = 1.00, arbitrary) (TNFα; incubation time: None): 1.02
SMILES: O=C(CO)[C@@H](O)[C@H](O)[C@H](O)CO [Fructose]

SMILES: N[C@@H](C(=O)N[C@@H]1C(=O)N2C(C(=O)O)=C(Cl)CS[C@H]12)c1ccccc1 [Cefaclor]
- Antibiotic effect on β-lactamase-producing E. coli (in words) [1]: little or no antibiotic effect
- E. coli growth score on agar plate [1, 3]: +++++

- Inactivation of TNFα receptor binding (in words) (TNFα; 2-week incubation period): did not inactivate TNFα
SMILES: OC[C@H]1O[C@@](CO)(O[C@H]2O[C@H](CO)[C@@H](O)[C@H](O)[C@H]2O)[C@@H](O)[C@@H]1O [sucrose]
